# Where two headings read alike, the source gives them in different places.
# How the values were obtained:
# muscarinic receptors [1] = assay: Displacement of muscarinic agonist 3H-Oxotremorine-M (3H-OXO-M) binding, cerebral cortex membranes; set-up: species or system Hooded Lister rats; settings: rat cerebral cortex; 2 nM 3H-OXO-M; 37° C., 30 min; E3 as hydrochloride salt, all others as oxalate salts
# muscarinic receptors [2] = format: binding, Hooded Lister rats; settings: rat cerebral cortex; 0.27 nM 3H-QNB; 37° C., 30 min; E3 as hydrochloride salt, all others as oxalate salts
smiles,measurement,setting,value
"Nc1nncc(C2CN3CCC2C3)n1 (racemic) [E9a & E9b, (±) exo and endo 3-(3-Amino-1,2,4-triazin-5-yl) -1-azabicyclo[2.2.1]heptane]",IC50,muscarinic receptors [1],1.1 nM
same,IC50,muscarinic receptors [2],320 nM
"Cc1nncc(C23CCCN(CC2)C3)n1 (racemic) [Example E1, (±) 5-(3-Methyl-l,2,4-triazin-5-yl)-1-azabicyclo[3.2.1]octane]",IC50,muscarinic receptors [1],33 nM
same,IC50,muscarinic receptors [2],1800 nM
"Nc1nncc(C23CCCN(CC2)C3)n1 (racemic) [Example E2, (±) 5-(3-Amino-l,2,4-triazin-5-yl)-1-azabicyclo[3.2.1]octane]",IC50,muscarinic receptors [1],5 nM
same,IC50,muscarinic receptors [2],1110 nM
"Nc1nncc(C2CN3CCC2CC3)n1 (racemic) [Example E6, (±)3-(3-Amino-1,2,4-triazin-5-yl)-1-azabicyclo[2.2.2]octane]",IC50,muscarinic receptors [1],11 nM
same,IC50,muscarinic receptors [2],2370 nM
"Cc1nncc(C2CN3CCC2CC3)n1 (racemic) [Example E7, (±) 3-(3-Methyl-1,2,4-triazin-5-yl)-1-azabicyclo[2.2.2]octane]",IC50,muscarinic receptors [1],3.3 nM
same,IC50,muscarinic receptors [2],175 nM
"Cc1nncc([C@@H]2CN3CC[C@@H]2C3)n1 (relative stereo) [Example E8a, 3-(3-Methyl-1,2,4-triazin-5-yl) -1-azabicyclo[2.2.1]heptane]",IC50,muscarinic receptors [1],3.1 nM
same,IC50,muscarinic receptors [2],255 nM
"CCc1nncc([C@@H]2CN3CC[C@@H]2C3)n1 (relative stereo) [Example E10, (±) exo and endo 3-(3-Ethyl-1,2,4-triazin-5-yl) -1-azabicyclo[2.2.1]heptane]",IC50,muscarinic receptors [1],68 nM
same,IC50,muscarinic receptors [2],240 nM
"Cc1nncc(C23CCN(CC2)C3)n1 [Example E3, 4-(3-Methyl-1,2,4-triazin-5-yl)-1-azabicyclo[2.2.1]heptane]",IC50,muscarinic receptors [1],70 nM
same,IC50,muscarinic receptors [2],4400 nM
"Nc1nncc(C23CCN(CC2)C3)n1 [Example E4, 4-(3-Amino-1,2,4-triazin-5-yl)-1-azabicyclo[2.2.1]heptane]",IC50,muscarinic receptors [1],4 nM
same,IC50,muscarinic receptors [2],1490 nM
"COc1nncc(C23CCN(CC2)C3)n1 [Example E5, 4-(3-Methoxy-1,2,4-triazin-5-yl)-1-azabicyclo[2.2.1]heptane]",IC50,muscarinic receptors [1],1100 nM
same,IC50,muscarinic receptors [2],14000 nM
